Values of other authors as cited in patent US20100152480A1 (priority 2008, published 2010).

What was measured:
[1] = test system: moulds and yeast (Aspergillus niger, Aureobasidium pullulans, Cladosporium cladosporioides, Gliocadium virens, Chaetonium globosum, Penicillium chrysogenum …); settings: listed moulds and yeasts; known from prior art
[2] = test system: gram negative bacteria (Alcaligenes faecalis, Bordetella bronchiseptica, Citrobacter freundii, Citrobacter intermedium, Enterobacter aerogenes, Escherichia …); settings: listed gram negative species; known from prior art
[3] = 20° C.
[4] = test system: gram positive bacteria (Arthrobacter oxydans, Bacillus cereus var mycoide, Bacillus subtilis, Bacillus megaterium, Clostridium perfringens, Listeria …); settings: listed gram positive species; known from prior art

ethyl-Na-dodecanoyl-Larginate HCl [Ethyl lauroyl arginate]
effectiveness against moulds and yeast [1]: effective
effectiveness against gram negative bacteria [2]: effective
solubility in water [3]: greater than 247 g/kg
effectiveness against gram positive bacteria [4]: effective
